Assay results published in article PMC5322940 (Cell, 2016).

What was measured:
[1] = system: hCB1 Phe170^2.57Ala or Phe174^2.61Ala; assay: Functional studies in mutant hCB1-CHO cells, Phe170Ala or Phe174Ala; format: cell-based, human
hCB1R [2] = biological target: T1, hCB1R (Homo sapiens, UniProt P21554); format: cell-based
hCB1R [3] = biological target: T1, hCB1R; format: cell-based; remark: listed apart in the source
hCB1 WT receptor = hCB1 WT receptor (Homo sapiens, UniProt P21554); assay: biochemical; format: binding
Chain of hCB1 WT receptor (P21554 whole entry): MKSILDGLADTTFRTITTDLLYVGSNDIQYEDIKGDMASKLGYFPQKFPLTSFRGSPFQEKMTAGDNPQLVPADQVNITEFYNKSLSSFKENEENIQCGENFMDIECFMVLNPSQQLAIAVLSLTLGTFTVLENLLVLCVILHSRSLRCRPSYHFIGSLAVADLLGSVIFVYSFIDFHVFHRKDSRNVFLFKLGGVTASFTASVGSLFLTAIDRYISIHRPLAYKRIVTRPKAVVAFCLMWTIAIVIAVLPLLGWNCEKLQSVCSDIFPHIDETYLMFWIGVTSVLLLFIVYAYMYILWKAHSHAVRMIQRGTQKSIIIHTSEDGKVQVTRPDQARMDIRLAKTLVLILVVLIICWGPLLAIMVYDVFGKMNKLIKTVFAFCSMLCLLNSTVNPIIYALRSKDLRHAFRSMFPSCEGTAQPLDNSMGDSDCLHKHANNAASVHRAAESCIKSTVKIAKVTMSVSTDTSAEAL

WT CB1 = WT CB1 (Homo sapiens, UniProt P21554); assay: Wash out experiment followed by [3H]-CP55,940 saturation binding
Chain of WT CB1 (P21554 whole entry): as above

CB1 [4] = biological target: CB1 (Mus musculus, UniProt P47746); assay: [35S]GTPγS binding to CB1 in C57 mouse cerebellum membranes; format: biochemical
Chain of CB1 (Mus musculus, UniProt P47746) (P47746 whole entry): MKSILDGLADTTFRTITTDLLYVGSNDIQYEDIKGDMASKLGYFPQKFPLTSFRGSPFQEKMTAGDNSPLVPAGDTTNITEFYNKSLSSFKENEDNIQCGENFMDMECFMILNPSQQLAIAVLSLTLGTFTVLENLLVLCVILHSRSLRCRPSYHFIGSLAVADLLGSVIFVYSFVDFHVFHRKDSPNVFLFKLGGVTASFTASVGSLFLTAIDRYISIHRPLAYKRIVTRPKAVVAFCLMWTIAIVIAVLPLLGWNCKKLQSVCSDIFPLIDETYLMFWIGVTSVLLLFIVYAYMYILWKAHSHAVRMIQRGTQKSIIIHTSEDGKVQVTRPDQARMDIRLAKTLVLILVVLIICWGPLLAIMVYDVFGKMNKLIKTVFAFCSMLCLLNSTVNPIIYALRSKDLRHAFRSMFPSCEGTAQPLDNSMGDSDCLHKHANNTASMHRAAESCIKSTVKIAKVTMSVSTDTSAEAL

CB1 [5] = conditions: cited from earlier work
[6] = system: hCB1 Phe170^2.57Trp or Phe174^2.61Trp; assay: Functional studies in mutant hCB1-CHO cells, Phe170Trp or Phe174Trp; format: cell-based, human; conditions: Phe170Ala/Trp or Phe174Ala/Trp vs WT
[7] = agonist, mouse cerebellum, mean ± S.E.M.

T1 sequence (P21554 whole entry): as the sequence (P21554 whole entry) above

Cc1c(C(=O)NN2CCCCC2)nn(-c2ccc(Cl)cc2Cl)c1-c1ccc(C#CCCO[N+](=O)[O-])cc1 [AM6538, 4-(4-(1-(2,4-dichlorophenyl)-4-methyl-3-(piperidin-1-ylcarbamoyl)-1H-pyrazol-5-yl)phenyl)but-3-yn-1-yl nitrate]
Effect of mutation on antagonist functional affinity [1]: dramatically reduced functional affinity | Mode of antagonism of CB1-mediated inhibition of adenylyl cyclase activity (hCB1R [2]): competitive antagonist | Mode of antagonism of β-arrestin2 recruitment (hCB1R [3]): competitive antagonist | Ki (hCB1 WT receptor): 3.4 ± 1 nM | Percentage of remaining binding (Bmax) of [3H]-CP55,940 (hCB1 WT receptor): ~ 30% | Effect on subsequent [3H]-CP55,940 binding after pretreatment and washout (WT CB1): wash-resistant binding | Mode of antagonism of [35S]-GTPγS binding (CB1 [4]): Competitive antagonism was confirmed

Cc1c(C(=O)NN2CCS(=O)(=O)CC2)nn(-c2ccc(Cl)cc2Cl)c1-c1ccc(C#CCCC#N)cc1 [AM6545]
Affinity and mode of action at CB1 (CB1 [5]; ref Tam et al., 2010): high affinity CB1 neutral antagonist

CCCCCCC(C)(C)c1ccc([C@@H]2C[C@H](O)CC[C@H]2CCCO)c(O)c1 [CP55,940]
Effect of mutation on agonist potency ([1]; Phe170Ala or Phe174Ala vs WT): neither mutation alters the potency | EC50 (CB1 [4]; [7]): 63 ± 5.5 nM | Emax (CB1 [4]; [7]): 2.40 ± 0.04 fold over baseline | Effect of mutation on agonist potency [6]: do not alter the potency

C[C@H](NC(=O)C(C)(C)Oc1ccc(C(F)(F)F)cn1)[C@@H](Cc1ccc(Cl)cc1)c1cccc(C#N)c1 [Taranabant]
Affinity with CB1 (CB1 [5]; among rimonabant, otenabant and taranabant, ref Table S2): highest affinity

Cc1c(C(=O)NN2CCCCC2)nn(-c2ccc(Cl)cc2Cl)c1-c1ccc(Cl)cc1 [rimonabant]
Effect of mutation on antagonist functional affinity [1]: dramatically reduced functional affinity
